Experimental data taken from paper PMC8377144, “Retro-enantio isomer of angiopep-2 assists nanoprobes across the blood-brain barrier for targeted magnetic resonance/fluorescence imaging of glioblastoma” (Signal Transduction and Targeted Therapy, 2021).

Tested on: in vitro BBB model (bEnd.3 cells cocultured with U87-MG cells)
Assay: NaFl permeability test of the in vitro BBB model (Transwell)
Format: in vitro ADME, mouse
Settings: bEnd.3 upper / U87-MG lower chamber, 3 µm polycarbonate, 0.33 cm^2, 200 µL NaFl 10 µg/mL upper, 900 µL PBS lower, 37 °C, sampling 30, 60, 90 min, microplate reader 485/535 nm
Description: Construction of the in vitro BBB model: U87-MG cells and bEnd.3 cells were initially cultured in high-glucose DMEM containing 10% FBS and 1% penicillin/streptomycin at 37 °C with 5% CO2. Moreover, a layer of a collagen solution was smeared on the inner side of the polycarbonate Transwell (3 µm mean pore size, 0.33 cm^2 surface area, Millipore, USA) and dried naturally on a clean bench for 30 min. Then, bEnd.3 cells were inoculated into the upper chamber of 24-well transwells units at a density of 5 × 10^4 cells per well. Two days later, U87-MG cells were inoculated into the lower chamber at a density of 1 × 10^5 cells per well and cocultured with bEnd.3 cells for one week.
Another test taken as an example from a previous study using sodium fluorescein (NaFl) was also introduced to evaluate in vitro BBB permeability.[44] […] The absorbance of standard solutions was obtained by a multidetection monochrometer microplate reader, and subsequently, a NaFl concentration-absorbance curve was made. With the help of the curve, we measured the in vitro BBB permeability with NaFl. […] Then, a multidetection monochrometer microplate reader (485/535 nm) was used to measure the amount of NaFl in the […]. The apparent permeability coefficient (Papp) was calculated as follows: […]

With `O=C([O-])c1ccccc1-c1c2ccc(=O)cc-2oc2cc([O-])ccc12.[Na+].[Na+]` [NaFl, sodium fluorescein] the “Papp of NaFl, BBB model group” value was 11.24 ± 0.73 × 10^−6 cm/s.
